# Active and inactive are the calls of the source.
# Columns and labels:
# [1] = HEp-2 cell cytotoxicity, dose response, cytotoxicity control for RSV inhibitor project, HTS (AID 2410); format: functional; conditions: human respiratory syncytial virus
# [2] = inhibitors of intracellular T. cruzi replication, confirmation, NIH3T3 host cells, beta-gal luminescence (AID 2044); format: functional, cell-based;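 note: intracellular parasites grown in NIH/3T3 mouse fibroblasts as host cells; luminescent beta-galactosidase reporter signal from transgenic T. cruzi replicating inside host cells; inhibitors lower the luminescence signal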
# [3] = growth suppression of PTEN-null colon cells, dose response, cell-based, HCT116 PTEN knockout (AID 1047); format: functional;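 note: HCT116 colon tumor cells with PTEN knocked out; cells exposed to compound for 60 hours before readout; potency for loss of cell viability measured by luminescence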
# [4] = cytotoxicity toward NIH3T3 fibroblasts, dose response, counter-screen, cell-based, ATP luminescence, mouse fibroblasts (AID 2010); format: functional;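 note: cells exposed to compound for about 90 hours before reading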
# [5] = growth suppression of beta-catenin-knockout colon cells, dose response, cell-based, HCT116, human colon tumor (AID 1045); format: functional;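 note: HCT116 colon tumor cells with beta catenin knocked out; cells exposed to compound for 60 hours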
# Cytochrome P450 2D6 = Cytochrome P450 2D6 (Homo sapiens, UniProt P10635);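 note: CYP2D6 member of a cytochrome P450 panel assay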
# Chain of Cytochrome P450 2D6 (P10635 whole entry): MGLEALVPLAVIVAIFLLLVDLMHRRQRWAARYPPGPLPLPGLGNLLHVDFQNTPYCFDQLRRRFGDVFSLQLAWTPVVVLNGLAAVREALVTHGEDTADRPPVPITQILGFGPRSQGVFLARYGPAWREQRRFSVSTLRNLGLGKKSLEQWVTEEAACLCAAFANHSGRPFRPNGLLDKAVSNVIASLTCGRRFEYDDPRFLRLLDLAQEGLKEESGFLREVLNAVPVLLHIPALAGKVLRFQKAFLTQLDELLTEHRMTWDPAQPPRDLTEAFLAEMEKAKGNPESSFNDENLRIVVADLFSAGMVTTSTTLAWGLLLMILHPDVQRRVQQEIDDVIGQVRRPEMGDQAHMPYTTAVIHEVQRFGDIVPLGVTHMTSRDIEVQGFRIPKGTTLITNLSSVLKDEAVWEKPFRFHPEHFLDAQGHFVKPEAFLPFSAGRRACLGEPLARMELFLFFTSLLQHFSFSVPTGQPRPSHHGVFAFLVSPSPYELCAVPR
# Cytochrome P450 2C9 = Cytochrome P450 2C9 (Homo sapiens, UniProt P11712)
# Chain of Cytochrome P450 2C9 (P11712 whole entry): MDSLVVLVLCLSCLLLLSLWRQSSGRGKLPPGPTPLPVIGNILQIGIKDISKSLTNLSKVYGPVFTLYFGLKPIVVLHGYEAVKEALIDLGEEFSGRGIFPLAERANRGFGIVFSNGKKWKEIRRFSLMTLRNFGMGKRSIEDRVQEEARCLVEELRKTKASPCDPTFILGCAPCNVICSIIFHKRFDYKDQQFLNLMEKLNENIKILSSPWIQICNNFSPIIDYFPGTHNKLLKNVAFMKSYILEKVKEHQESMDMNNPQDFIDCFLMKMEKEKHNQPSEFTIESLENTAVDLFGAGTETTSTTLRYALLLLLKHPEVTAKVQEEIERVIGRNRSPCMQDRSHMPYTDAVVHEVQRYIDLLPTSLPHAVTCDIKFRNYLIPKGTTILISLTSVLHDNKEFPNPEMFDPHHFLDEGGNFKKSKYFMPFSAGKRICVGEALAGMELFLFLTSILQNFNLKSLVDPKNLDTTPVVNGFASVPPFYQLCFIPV
# H4 = test: Luminescence Cell-Based Dose Response HTS to Identify Activators of 5'UTR Stem-Loop Driven Prion Protein mRNA Translation in H4 Neuroglioblastoma Cells. [Related pubchem assays: 1829 (Project Summary), 1814 (Primary HTS)]; format: functional; conditions: Homo sapiens
# [6] = target: T1, Heat shock factor protein 1 (Mus musculus, UniProt P38532); test: inhibition of MG132-induced HSE-luciferase signal, confirmation, cell-based, NIH3T3, luminescence, dose retest (AID 2382); format: functional;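 note: NIH3T3 fibroblasts with HSF1-driven luciferase reporter stressed by proteasome inhibitor MG132; luminescence from HSF1-driven luciferase expression after 8 hours of MG132 stress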
# T1 sequence (P38532 whole entry): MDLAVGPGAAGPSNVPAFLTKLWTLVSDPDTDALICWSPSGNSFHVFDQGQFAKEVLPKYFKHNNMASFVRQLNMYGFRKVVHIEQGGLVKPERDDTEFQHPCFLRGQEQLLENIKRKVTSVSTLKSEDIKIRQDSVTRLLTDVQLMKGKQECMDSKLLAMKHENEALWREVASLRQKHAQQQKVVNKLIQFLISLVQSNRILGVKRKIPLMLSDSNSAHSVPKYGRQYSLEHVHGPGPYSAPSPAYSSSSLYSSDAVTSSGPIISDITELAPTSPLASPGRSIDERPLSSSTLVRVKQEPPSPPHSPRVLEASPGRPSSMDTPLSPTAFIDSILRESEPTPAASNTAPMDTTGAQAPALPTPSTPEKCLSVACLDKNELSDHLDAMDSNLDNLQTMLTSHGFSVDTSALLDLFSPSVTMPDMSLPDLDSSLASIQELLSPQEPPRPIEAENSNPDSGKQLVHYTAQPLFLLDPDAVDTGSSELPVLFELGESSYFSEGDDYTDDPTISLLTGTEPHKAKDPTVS
# cells = format: functional
# Paired box protein Pax-8 = Paired box protein Pax-8 (Homo sapiens, UniProt Q06710); test: inhibitors of PAX8-driven TPO luciferase reporter, dose response, RMG-I cells, cherry-pick (AID 687027); format: functional, cell-based;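 note: luciferase reporter driven by Pax8 target thyroperoxidase promoter measured by SteadyGlo luminescence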
# Chain of Paired box protein Pax-8 (Q06710 whole entry): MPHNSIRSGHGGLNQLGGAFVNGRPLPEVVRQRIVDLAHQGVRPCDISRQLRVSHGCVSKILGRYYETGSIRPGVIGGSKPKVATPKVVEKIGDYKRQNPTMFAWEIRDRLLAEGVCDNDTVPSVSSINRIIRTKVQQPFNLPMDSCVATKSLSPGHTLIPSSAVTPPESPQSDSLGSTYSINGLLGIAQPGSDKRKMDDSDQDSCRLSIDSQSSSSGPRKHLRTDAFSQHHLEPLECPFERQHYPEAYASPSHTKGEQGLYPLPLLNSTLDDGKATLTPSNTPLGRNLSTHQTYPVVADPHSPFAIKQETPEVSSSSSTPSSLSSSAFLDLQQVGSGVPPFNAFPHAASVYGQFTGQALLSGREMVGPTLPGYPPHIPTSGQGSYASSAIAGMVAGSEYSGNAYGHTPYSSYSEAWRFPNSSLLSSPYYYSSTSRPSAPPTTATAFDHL
# Cytochrome P450 2C19 = Cytochrome P450 2C19 (Homo sapiens, UniProt P33261); test: Cytochrome panel assay with activity outcomes. Panel member name: p450-cyp2c19 Compounds with AC50 equal or less than 10 uM are considered active; format: functional
# Chain of Cytochrome P450 2C19 (P33261 whole entry): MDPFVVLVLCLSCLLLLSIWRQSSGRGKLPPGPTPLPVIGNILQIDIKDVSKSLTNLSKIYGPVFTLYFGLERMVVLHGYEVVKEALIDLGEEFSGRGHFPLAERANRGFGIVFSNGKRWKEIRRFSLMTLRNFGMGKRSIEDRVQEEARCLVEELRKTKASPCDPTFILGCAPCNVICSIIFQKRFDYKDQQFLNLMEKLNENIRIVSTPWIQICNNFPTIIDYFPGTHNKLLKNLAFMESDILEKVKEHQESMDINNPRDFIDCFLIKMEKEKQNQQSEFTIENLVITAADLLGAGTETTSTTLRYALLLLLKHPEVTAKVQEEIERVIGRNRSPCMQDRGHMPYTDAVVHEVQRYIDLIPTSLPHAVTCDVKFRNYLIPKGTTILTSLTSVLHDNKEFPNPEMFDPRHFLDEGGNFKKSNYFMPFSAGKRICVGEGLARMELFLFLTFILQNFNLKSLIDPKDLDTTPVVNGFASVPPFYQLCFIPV
# [7] = target: T2, Corticotropin-releasing factor receptor 2/Corticotropin-releasing factor-binding protein (Homo sapiens, UniProt P24387+Q13324); test: Dose Response confirmation of uHTS hits for small molecule antagonists of the CRF-binding protein and CRF-R2 receptor complex.; format: functional; conditions: read-out: IC50_Mean
# T2 sequence (Q13324 whole entry): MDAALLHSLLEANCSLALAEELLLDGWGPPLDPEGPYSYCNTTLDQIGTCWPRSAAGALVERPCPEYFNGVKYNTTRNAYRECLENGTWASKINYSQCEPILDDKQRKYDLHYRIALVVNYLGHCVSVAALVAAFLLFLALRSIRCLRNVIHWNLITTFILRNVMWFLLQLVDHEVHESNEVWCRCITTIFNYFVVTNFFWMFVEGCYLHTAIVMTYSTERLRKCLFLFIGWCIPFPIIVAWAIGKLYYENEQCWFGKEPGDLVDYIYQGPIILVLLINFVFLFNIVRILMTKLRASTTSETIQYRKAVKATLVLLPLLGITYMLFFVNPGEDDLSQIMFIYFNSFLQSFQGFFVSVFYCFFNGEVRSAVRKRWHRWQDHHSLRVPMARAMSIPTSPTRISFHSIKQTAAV
# T2 sequence (P24387 whole entry): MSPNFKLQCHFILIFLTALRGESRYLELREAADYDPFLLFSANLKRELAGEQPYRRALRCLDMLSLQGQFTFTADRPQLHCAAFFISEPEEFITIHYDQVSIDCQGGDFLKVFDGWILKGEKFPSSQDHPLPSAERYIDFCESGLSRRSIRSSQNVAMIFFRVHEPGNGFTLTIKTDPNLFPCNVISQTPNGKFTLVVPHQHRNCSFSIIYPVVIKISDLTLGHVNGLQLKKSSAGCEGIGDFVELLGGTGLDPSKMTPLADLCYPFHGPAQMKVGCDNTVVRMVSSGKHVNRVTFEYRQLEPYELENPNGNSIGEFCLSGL
# [8] = target: T2, Corticotropin-releasing factor receptor 2/Corticotropin-releasing factor-binding protein; test: activators of CRF receptor 2 with binding protein – uHTS hits, confirmation (AID 602473); format: functional; conditions: read-out: EC50_Mean
# [9] = NIH-3T3 fibroblast cytotoxicity, dose response, cytotoxicity control, cell-based, fluorescence, Alamar Blue, secondary assay (AID 2327); format: functional;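 note: NIH-3T3 mouse fibroblasts cultured with fluconazole at 8 µg/mL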
# [10] = inhibitors of firefly luciferase expression or activity, dose response, H4 neuroglioma cells, luminescence (AID 1990); format: functional, cell-based
# [11] = Luminescence Cell-Based Dose Response HTS to Identify Inhibitors of 5'UTR Stem-Loop Driven Prion Protein mRNA Translation in H4 Neuroglioblastoma Cells. [Related pubchem assays: 1827 (Project Summary), 1813 (Primary HTS)]; format: functional
# [12] = inhibitors of SNCA 5'UTR-driven reporter translation, confirmation, H4 neuroglioma cells, luminescence (AID 1988); format: functional, cell-based
compound,measurement,setting,value
CCn1c2ccccc2c2cc(NC(=O)c3ccco3)ccc21,CC50,[1],16.2 µM (active)
Cc1ccc(S(=O)(=O)N(CC(=O)Nc2ccc(Cl)c([N+](=O)[O-])c2)C2CCCCC2)cc1,EC50,[2],3.08 µM (active)
same,EC50,[3],16.2 µM (active)
same,EC50,[4],> 60 µM (not active)
same,EC50,[5],19 µM (active)
CCOC(=O)C[C@@H](C(=O)OCC)[C@@H]1CCCCC1=O,AC50,Cytochrome P450 2D6,6.31 µM (inconclusive)
COC(=O)c1nn(-c2ccccc2)c(=O)cc1Oc1ccccc1,AC50,Cytochrome P450 2C9,11.2 µM (inconclusive)
CCCOc1ccc2c3c(c(=O)oc2c1)CCCC3,CC50,[1],> 50 µM (active)
CCSc1nc2c(c(-c3ccc(C)o3)c1C#N)CCCC2,CC50,[1],37.5 µM (active)
Cc1cc(C(=O)COC(=O)C2=COCCO2)c(C)n1-c1cccc(F)c1,EC50,H4,0.887 µM (active)
Cc1ccccc1-c1cncnc1N(C)Cc1ccco1,AC50,Cytochrome P450 2D6,20 µM (inconclusive)
CCOc1nc(C)ccc1-c1noc(-c2cccnc2)n1,EC50,[6],> 195 µM (not active)
Cc1cc(Br)c2[nH]cc(CCNC(=O)c3ccco3)c2c1,EC50,[6],> 195 µM (not active)
O=S(=O)(/C=C/c1ccccc1)N1CCC(c2nc(O)c3nnn(Cc4ccccc4)c3n2)CC1,CC50,[1],27.7 µM (active)
CCC(C)NC(=O)C1(C)CCC(=O)N1Cc1ccccc1OC (centres undefined),EC50,[6],> 195 µM (not active)
Cc1nn(-c2nc3ccccc3s2)c(N)c1Sc1ccc(F)cc1,EC50,[3],15.5 µM (active)
same,EC50,[5],19.6 µM (active)
Cc1ccc(S(=O)(=O)N2CCC(C(=O)OCc3ccccc3)CC2)cc1C,IC50,cells,18.6 µM (active)
CC(C)OC(=O)c1cc2ccccc2oc1=O,AC50,Cytochrome P450 2C9,10 µM (inconclusive)
CC1CCC(NC(=O)c2ccc3c(c2)S(=O)(=O)c2ccccc2C3=O)CC1 (centres undefined),CC50,[1],> 50 µM (active)
CCOC(=O)c1cnc2ccc(C(=O)OC)cc2c1Nc1ccc(C(=O)O)cc1,AC50,Paired box protein Pax-8,66.4 µM (active)
CCSc1nnc(-c2ccccc2NC(C)=O)c(O)n1,AC50,Cytochrome P450 2C19,inconclusive
same,AC50,Cytochrome P450 2C9,31.6 µM (inconclusive)
CN(c1ccccc1)P(=O)(N1CC1)N1CC1,IC50,[7],> 47.1 µM (inactive)
same,EC50,[8],> 53 µM (inactive)
COc1ccc2c3c([nH]c2c1)[C@@H](CO)N(C(=O)Nc1cccc(F)c1)CC31CCN(S(=O)(=O)c2cccc(C)c2)CC1,AC50,Paired box protein Pax-8,6 µM (active)
O=S(=O)(c1ccccc1F)N1CC[C@@H]2[C@H](CO)Nc3ccc(C4=CCCCC4)cc3[C@@H]21,AC50,Paired box protein Pax-8,28.2 µM (active)
C[C@@H]1CN([C@@H](C)CO)C(=O)Cc2cc(NC(=O)Nc3ccc(C(F)(F)F)cc3)ccc2O[C@H]1CN(C)Cc1ccc(Cl)c(Cl)c1,AC50,Paired box protein Pax-8,11.1 µM (active)
C=CCn1c(COc2ccccc2)nnc1SCC(=O)N/N=C/c1ccc(C)cc1,AC50,Cytochrome P450 2C19; read-out: AC50,15.8 µM (inconclusive)
same,AC50,Cytochrome P450 2D6,39.8 µM (inconclusive)
CC(=O)N(/N=C/c1cccc(C)c1)c1nc(-c2ccc(Br)cc2)cs1,AC50,Cytochrome P450 2C19; read-out: AC50,0.0708 µM (inconclusive)
same,AC50,Cytochrome P450 2C9,1.12 µM (inconclusive)
Cc1cc(C(C)(C)C)ccc1OCC(=O)N/N=C\c1c(C)n(C)n(-c2ccccc2)c1=O,EC50,[6],> 195 µM (not active)
COc1ccc(O)c(/C=N/NC(=O)c2ccc(N3CCCC3=O)cc2)c1,EC50,[9],> 160 µM (inactive)
same,EC50,[10],14.8 µM (active)
same,EC50,[11],16.3 µM (active)
same,EC50,[12],12.5 µM (active)
same,AC50,Paired box protein Pax-8,< 0.26 µM (active)
O=S1(=O)OC(c2ccc(O)cc2)(c2ccc(O)cc2)c2ccccc21 [PHENOLSULFONPHTHALEIN],AC50,Cytochrome P450 2C9,6.31 µM (inconclusive)
